Measured values: US20240327411A1, “SIRT6 ACTIVATORS” (The Board of Regents of The University of Texas System, priority 2022, published 2024)
“Also recorded” adds a separate entry of the source.

Legend:
[1] = target: T1, Sirt6 (Homo sapiens, UniProt Q8N6T7); conditions: literature value, cited from earlier work
[2] = test system: PLC/PRF/5 cells; experiment: Colony formation assay in PLC/PRF/5 cells; format: cell-based; conditions: 30 μM, one week
[3] = test system: PLC/PRF/5 cells; experiment: Acetylated H3K9 / total H3 in PLC/PRF/5 cells, Western blot; format: cell-based; conditions: 30 μM, 24 hours
[4] = target: T2, Sirt1 (Homo sapiens, UniProt Q96EB6); experiment: Sirt1 deacetylation activity assay kit; conditions: time course, FIG. 3
T2 sequence (Q96EB6 1-747): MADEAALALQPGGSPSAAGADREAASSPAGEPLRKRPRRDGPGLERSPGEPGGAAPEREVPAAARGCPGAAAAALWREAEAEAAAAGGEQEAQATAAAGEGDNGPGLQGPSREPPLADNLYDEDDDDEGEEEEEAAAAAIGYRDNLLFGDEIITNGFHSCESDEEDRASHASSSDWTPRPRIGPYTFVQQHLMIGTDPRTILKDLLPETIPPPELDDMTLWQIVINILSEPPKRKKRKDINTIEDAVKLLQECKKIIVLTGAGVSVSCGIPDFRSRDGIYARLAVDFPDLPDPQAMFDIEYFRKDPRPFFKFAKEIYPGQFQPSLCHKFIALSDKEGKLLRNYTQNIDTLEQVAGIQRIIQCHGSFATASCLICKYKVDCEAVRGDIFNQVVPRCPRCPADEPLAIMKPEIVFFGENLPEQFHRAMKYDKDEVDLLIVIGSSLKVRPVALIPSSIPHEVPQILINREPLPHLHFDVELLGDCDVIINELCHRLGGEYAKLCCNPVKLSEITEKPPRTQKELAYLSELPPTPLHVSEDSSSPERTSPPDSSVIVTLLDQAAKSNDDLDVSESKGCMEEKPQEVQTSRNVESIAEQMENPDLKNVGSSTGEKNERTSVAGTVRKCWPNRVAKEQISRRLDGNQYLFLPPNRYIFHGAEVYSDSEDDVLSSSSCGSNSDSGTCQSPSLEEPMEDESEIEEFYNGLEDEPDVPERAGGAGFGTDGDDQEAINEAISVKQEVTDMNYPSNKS
Procedure: (§2) Sirt6/Sirt1/Sirt2/Sirt3 activity was tested by Activity Assay Kits (Abcam) according to the manufacturer's instruction with minor modification. […] All experiments were conducted at room temperature.

[5] = test system: A549-hACE2 cells; experiment: Cell viability assay in A549-hACE2 cells; conditions: 50 μM, 48 h
[6] = target: T1, Sirt6; experiment: Sirt6-dependent peptide deacetylation, FLUOR DE LYS / Sirt6 fluorometric activity kit; format: biochemical; conditions: mean ± SD, at least two independent experiments; for Activation Fold 30 μM: compound at 30 μM; for Activation Fold 100 μM: compound at 100 μM
Procedure: as §2

[7] = target: T1, Sirt6; experiment: Nucleosome test: Sirt6-dependent H3K9 deacetylation of nucleosomes from HEK293T cells, Western blot; format: biochemical; conditions: 100 μM, 30° C., 60 minutes
Procedure: (§1) . Nucleosomes extracted from HEK293T cells were incubated with 100 μM of selected compounds or Vehicle at 30° C. for 60 minutes. Acetylated H3K9 and total H3 were detected by Western blot. The level of acetylated H3K9 was quantified by Image Lab software. FIGS. 5B and 5C show the cell viability which was assessed by MTT assay. R28 cells were treated with 30 μM or 100 μM compounds for 24 hours. Data were presented as mean±SEM. The experiment was repeated at least three times. ***p<0.001; ****p<0.0001.
Next, effects of selected compounds were explored for Sirt6-dependent deacetylation of complete nucleosomes extracted from human embryonic kidney (HEK) 293T cells, as nucleosomes represent more physiologically relevant substrates. […]. Briefly, HEK 293T cells in 100 mm dish were lysed with lysis buffer supplemented with PIC and PMSF for 30 min. After centrifugation for 10 min at 5000 rpm at 4° C., supernatant was removed and nuclei pellet was resuspended with digestion buffer supplemented with PIC and PMSF for 5 min at 37° C. Working enzymatic sharing cocktail was added to digest the chromatin, and EDTA was added after incubation to stop the digestion. Digested nucleosome was obtained in the supernatant after centrifugation for 10 min at 15000 rpm at 4° C. and the concentration was quantified by measuring the absorbance at […]. 20 μg nucleosome was incubated in solution (1× buffer, 0.5 μL recombinant Sirt6 and […] NAD, from SIRT6 ACTIVITY ASSAY KIT) for 60 min. To test the effects of the compounds on Sirt6 activity, corresponding compound or DMSO control was added before incubation. The reaction mixture was analyzed by Western blot.
Proteins were extracted from cells with PIERCE RIPA BUFFER (89901, ThermoFisher Scientific), and protein concentration was determined using PIERCE BCA PROTEIN ASSAY KIT (23225, ThermoFisher Scientific). Equal amounts of protein were loaded and separated by SDS-PAGE gel. Next, separated proteins were transferred onto Nitrocellulose Blotting Membranes (A29457237, GE Healthcare Life science), and then the membranes were blocked by 5% non-fat dry milk. After incubation with corresponding primary antibodies against H3K9ac, H3 and Sirt6 at a 1:1000 dilution, or α-tubulin at a 1:5000 dilution, goat anti-mouse or goat anti-rabbit secondary antibodies at a 1:5000 dilution were applied. Finally, membranes were incubated with enhanced chemiluminescent and protein bands were detected by CHEMIDOC imaging system (Bio-Rad). Image-Lab software was used to analyze the intensities of the protein bands.

[8] = test system: H1299 cells; experiment: Acetylated H3K9 / total H3 in H1299 cells, Western blot; format: cell-based; conditions: 30 μM, 24 hours
[9] = test system: retinal precursor cells (R28); experiment: MTT cell viability assay in R28 cells; format: cell-based; conditions: 24 hours
Procedure: as §1, with “FIGS. 5A-5C: FIGS. 5A-5C display the deacetylation effect and cytotoxicity of selected compounds. […] Nucleosomes” for “. Nucleosomes”
R28 cells were seeded in 96 well plates at a density of 1×10^4/well overnight, then treated with compounds for 24 h. MTT (MilliporeSigma) was added to cells (20 μL/well) and incubated for 3.5 h. After medium was removed, 100 μL dimethyl sulfoxide (DMSO) was added into each well. Absorbance was measured at 540 nm using a microplate reader.

[10] = test system: H1299 cells; experiment: Colony formation assay in H1299 cells; format: cell-based; conditions: 30 μM, one week
[11] = test system: SARS-CoV-2; experiment: microbe, parasite or virus in culture; format: cell-based
[12] = test system: BV2 cells; experiment: LPS-induced inflammatory gene mRNA expression in BV2 cells, q-PCR; format: cell-based, murine; conditions: for LPS-induced expression of IL-1β, IL-6, MCP-1, and TNFα / ICAM-1 induction / LPS-induced IL-1β, IL-6, and MCP-1 response / LPS-induced iNOS and CXCL10 expression / VCAM-1 induction: BV2 cells, 100 ng/mL LPS 6 hours, mRNA; for LPS-induced expression of IL-1β, IL-6, MCP-1, and TNFα: 30 μM pretreatment 30 minutes; for ICAM-1 induction / LPS-induced IL-1β, IL-6, and MCP-1 response / LPS-induced iNOS and CXCL10 expression / VCAM-1 induction: 30 μM; for LPS-induced proinflammatory cytokine/chemokine production: summary statement

T1 sequence (Q8N6T7 whole entry): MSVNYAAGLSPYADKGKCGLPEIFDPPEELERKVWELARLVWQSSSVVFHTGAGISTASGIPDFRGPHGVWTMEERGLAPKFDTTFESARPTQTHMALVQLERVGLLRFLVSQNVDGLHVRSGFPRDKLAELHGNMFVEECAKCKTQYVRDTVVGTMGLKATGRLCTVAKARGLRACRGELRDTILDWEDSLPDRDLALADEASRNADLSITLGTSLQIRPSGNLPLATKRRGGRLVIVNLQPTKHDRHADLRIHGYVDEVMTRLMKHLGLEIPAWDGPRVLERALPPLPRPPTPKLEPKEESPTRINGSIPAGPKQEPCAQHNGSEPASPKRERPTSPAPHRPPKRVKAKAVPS

Row | SMILES | cytotoxicity at the highest tested concentration [5] | Activation Fold 30 μM [6] [fold] | Activation Fold 100 μM [6] [fold] | acetylation of H3K9 in the nucleosome test [7] | toxicity on retinal precursor cells (R28) ([9]; 30 μM) | potency in inhibiting SARS-CoV-2 infection (in words) [11] | LPS-induced expression of IL-1β, IL-6, MCP-1, and TNFα [12] | ICAM-1 induction [12] | LPS-induced proinflammatory cytokine/chemokine production [12] | LPS-induced IL-1β, IL-6, and MCP-1 response [12] | LPS-induced iNOS and CXCL10 expression [12] | further results
1 | O=C(O)c1ccc2c(c1)C(=O)N(c1ccc(N(C(=O)c3c(Cl)cc(Cl)cc3Cl)C(=O)c3c(Cl)cc(Cl)cc3Cl)c(Cl)c1)C2=O [CL5D] | – | – | – | – | – | – | – | – | – | – | – | Sirt6 activation at 3 μM ([1]; concentration of 3 μM): 4 fold
2 | OCCN1CCN(c2ncccc2C2Nc3ccccc3-n3cccc32)CC1 (centres unmarked) [Compound 35, 2-(4-(3-(4,5-Dihydropyrrolo[1,2-a]quinoxalin-4-yl)pyridin-2-yl)piperazin-1-yl)ethan-1-ol] | none of these compounds exhibited significant cytotoxicity | 2.92 ± 0.06 | 5.72 ± 0.69 | significantly decreased the acetylation of H3K9 | no obvious toxicity | micromolar potency | strongly inhibited | slight inhibition | strongly repressed | – | – | colony formation [2]: only a slight inhibitory effect; Sirt6 deacetylation of H3K9 (acetylated H3K9 to total H3) [3]: no obvious influence; effect on Sirt1 deacetylation [4]: no significant effects; Sirt6 deacetylation of H3K9 (acetylated H3K9 to total H3) [8]: no obvious influence; toxicity on retinal precursor cells (R28) ([9]; 100 μM): no obvious toxicity; colony formation [10]: only a slight inhibitory effect
3 | COCCN1CCN(c2ncccc2C2Nc3ccccc3-n3cccc32)CC1 (centres unmarked) [Compound 36, 4-(2-(4-(2-Methoxyethyl)piperazin-1-yl)pyridin-3-yl)-4,5-dihydropyrrolo[1,2-a]quinoxaline] | none of these compounds exhibited significant cytotoxicity | 3.17 ± 0.21 | 6.06 ± 0.13 | significantly decreased the acetylation of H3K9 | no obvious toxicity | micromolar potency | strongly inhibited | – | strongly repressed | – | – | colony formation [2]: significantly inhibited; also recorded: about half; Sirt6 deacetylation of H3K9 (acetylated H3K9 to total H3) [3]: significantly activated Sirt6 to deacetylate H3K9; decrease of acetylated H3K9 when Sirt6 was knockdown by siRNA ([3]; Sirt6 siRNA): abolished; effect on Sirt1 deacetylation [4]: no significant effects; Sirt6 deacetylation of H3K9 (acetylated H3K9 to total H3) [8]: significantly activated Sirt6 to deacetylate H3K9; decrease of acetylated H3K9 when Sirt6 was knockdown by siRNA ([8]; Sirt6 siRNA): abolished; toxicity on retinal precursor cells (R28) ([9]; 100 μM): no obvious toxicity; colony formation [10]: significantly inhibited; also recorded: about half
4 | OC1CN(CCN2CCN(c3ncccc3C3Nc4ccccc4-n4cccc43)CC2)C1 (centres unmarked) [Compound 46, 1-(2-(4-(3-(4,5-Dihydropyrrolo[1,2-a]quinoxalin-4-yl)pyridin-2-yl)piperazin-1-yl)ethyl)azetidin-3-ol] | none of these compounds exhibited significant cytotoxicity | 3.30 ± 0.11 | 6.30 ± 0.25 | significantly decreased the acetylation of H3K9 | no obvious toxicity | micromolar potency | strongly inhibited | – | strongly repressed | almost reversed | significantly repressed | VCAM-1 induction [12]: obviously inhibit
5 | c1ccc2c(c1)NC(c1cccnc1N1CCN(CCN3CCCC3)CC1)c1cccn1-2 (centres unmarked) [Compound 47, 4-(2-(4-(2-(Pyrrolidin-1-yl)ethyl)piperazin-1-yl)pyridin-3-yl)-4,5-dihydropyrrolo[1,2-a]quinoxaline] | – | 4.80 ± 0.19 | 5.38 ± 0.29 | no effect | no obvious toxicity | – | strongly inhibited | slight inhibition | strongly repressed | almost reversed | significantly repressed | VCAM-1 induction [12]: obviously inhibit
6 | c1ccc2c(c1)NC(c1cccnc1N1CCN(CCn3ccnc3)CC1)c1cccn1-2 (centres unmarked) [Compound 50, 4-(2-(4-(2-(1H-Imidazol-1-yl)ethyl)piperazin-1-yl)pyridin-3-yl)-4,5-dihydropyrrolo[1,2-a]quinoxaline] | – | 3.34 ± 0.19 | 6.29 ± 0.02 | significantly decreased the acetylation of H3K9 | no obvious toxicity | – | strongly inhibited | slight inhibition | strongly repressed | almost reversed | significantly repressed | –
7 | CN(C)CCN1CCN(c2ncccc2C2Oc3ccccc3-n3c2ccc3C(F)(F)F)CC1 (centres unmarked) [Compound 76, N,N-Dimethyl-2-(4-(3-(1-(trifluoromethyl)-4H-benzo[b]pyrrolo[1,2-d][1,4]oxazin-4-yl)pyridin-2-yl)piperazin-1-yl)ethan-1-amine] | – | 2.69 ± 0.02 | 4.20 ± 0.06 | – | – | – | – | – | – | – | – | –
8 | CCCCCCCC/C=C\CCCCCCCC(=O)NCCO [Oleoylethanolamide] | – | – | – | – | – | – | – | – | – | – | – | maximum activation (Emax) of Sirt6 deacetylation [1]: 2.1 fold
